PubChem BioAssay AID1963959 (Molecular Pharmacology Branch, DTP, NCI, 2024)

Test system: T-47D spheroids with HUVEC/MSC, viability
Test: Anticancer human tumor T-47D cell line growth inhibition [PI3K];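 further: spheroids exposed to agents for seven days before reading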;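 on viability, T/C: percent of DMSO vehicle control luminescence so 100% = untreated growth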
Settings: for IC50: curve of first compound; for viability, T/C: stronger effect = lower value
How it was run: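 Combination activity was assessed by viability in multicellular tumor spheroids carrying HUVEC and MSC components. Agents were tested with PI3K inhibitors from a Cmax-based top dose (or 10 microM) downward in half-log increments.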

[1] = second compound 0.0316 µM, first compound 0.0316 µM
[2] = second compound 0.0316 µM, first compound 0.1 µM
[3] = second compound 0.0316 µM, first compound 0.316 µM
[4] = second compound 0.0316 µM, first compound 1 µM
[5] = second compound 0.0316 µM, first compound 3.16 µM
[6] = second compound 0.0316 µM, first compound 10 µM
[7] = second compound 0.1 µM, first compound 0.0316 µM
[8] = second compound 0.1 µM, first compound 0.1 µM
[9] = second compound 0.1 µM, first compound 0.316 µM
[10] = second compound 0.1 µM, first compound 1 µM
[11] = second compound 0.1 µM, first compound 3.16 µM
[12] = second compound 0.1 µM, first compound 10 µM
[13] = second compound 0.316 µM, first compound 0.0316 µM
[14] = second compound 0.316 µM, first compound 0.1 µM
[15] = second compound 0.316 µM, first compound 0.316 µM
[16] = second compound 0.316 µM, first compound 1 µM
[17] = second compound 0.316 µM, first compound 3.16 µM
[18] = second compound 0.316 µM, first compound 10 µM
[19] = second compound 1 µM, first compound 0.0316 µM
[20] = second compound 1 µM, first compound 0.1 µM
[21] = second compound 1 µM, first compound 0.316 µM
[22] = second compound 1 µM, first compound 1 µM
[23] = second compound 1 µM, first compound 3.16 µM
[24] = second compound 1 µM, first compound 10 µM
[25] = second compound 3.16 µM, first compound 0.0316 µM
[26] = second compound 3.16 µM, first compound 0.1 µM
[27] = second compound 3.16 µM, first compound 0.316 µM
[28] = second compound 3.16 µM, first compound 1 µM
[29] = second compound 3.16 µM, first compound 3.16 µM
[30] = second compound 3.16 µM, first compound 10 µM
[31] = second compound 10 µM, first compound 0.0316 µM
[32] = second compound 10 µM, first compound 0.1 µM
[33] = second compound 10 µM, first compound 0.316 µM
[34] = second compound 10 µM, first compound 1 µM
[35] = second compound 10 µM, first compound 3.16 µM
[36] = second compound 10 µM, first compound 10 µM
[37] = second compound 0.0316 µM, first compound 0.000316 µM
[38] = second compound 0.0316 µM, first compound 0.001 µM
[39] = second compound 0.0316 µM, first compound 0.00316 µM
[40] = second compound 0.0316 µM, first compound 0.01 µM
[41] = second compound 0.1 µM, first compound 0.000316 µM
[42] = second compound 0.1 µM, first compound 0.001 µM
[43] = second compound 0.1 µM, first compound 0.00316 µM
[44] = second compound 0.1 µM, first compound 0.01 µM
[45] = second compound 0.316 µM, first compound 0.000316 µM
[46] = second compound 0.316 µM, first compound 0.001 µM
[47] = second compound 0.316 µM, first compound 0.00316 µM
[48] = second compound 0.316 µM, first compound 0.01 µM
[49] = second compound 1 µM, first compound 0.000316 µM
[50] = second compound 1 µM, first compound 0.001 µM
[51] = second compound 1 µM, first compound 0.00316 µM
[52] = second compound 1 µM, first compound 0.01 µM
[53] = second compound 3.16 µM, first compound 0.000316 µM
[54] = second compound 3.16 µM, first compound 0.001 µM
[55] = second compound 3.16 µM, first compound 0.00316 µM
[56] = second compound 3.16 µM, first compound 0.01 µM
[57] = second compound 10 µM, first compound 0.000316 µM
[58] = second compound 10 µM, first compound 0.001 µM
[59] = second compound 10 µM, first compound 0.00316 µM
[60] = second compound 10 µM, first compound 0.01 µM

CC(C)NCC(C(=O)N1CCN(c2ncnc3c2C(C)CC3O)CC1)c1ccc(Cl)cc1 (stereo not given) + CC(Nc1ncnc2nc[nH]c12)c1cc2cccc(Cl)c2c(=O)n1-c1ccccc1
IC50 (second compound 0.0316 µM): > 10 µM
IC50 (second compound 0.1 µM): > 10 µM
IC50 (second compound 0.316 µM): > 10 µM
IC50 (second compound 1 µM): > 10 µM
IC50 (second compound 3.16 µM): > 10 µM
IC50 (second compound 10 µM): > 10 µM
viability, T/C [1]: 107%
viability, T/C [2]: 73.4%
viability, T/C [3]: 91.6%
viability, T/C [4]: 81.4%
viability, T/C [5]: 59.9%
viability, T/C [6]: 57.2%
viability, T/C [7]: 111%
viability, T/C [8]: 75.5%
viability, T/C [9]: 88.5%
viability, T/C [10]: 66.2%
viability, T/C [11]: 60.2%
viability, T/C [12]: 63.6%
viability, T/C [13]: 98.3%
viability, T/C [14]: 78.6%
viability, T/C [15]: 77.4%
viability, T/C [16]: 65.9%
viability, T/C [17]: 65.2%
viability, T/C [18]: 62.2%
viability, T/C [19]: 79.8%
viability, T/C [20]: 104%
viability, T/C [21]: 90.1%
viability, T/C [22]: 63.4%
viability, T/C [23]: 61.9%
viability, T/C [24]: 60.4%
viability, T/C [25]: 98.7%
viability, T/C [26]: 84.4%
viability, T/C [27]: 81.7%
viability, T/C [28]: 87.5%
viability, T/C [29]: 55.3%
viability, T/C [30]: 62.9%
viability, T/C [31]: 93.5%
viability, T/C [32]: 93.1%
viability, T/C [33]: 87.3%
viability, T/C [34]: 74%
viability, T/C [35]: 67.3%
viability, T/C [36]: 57.9%

CC(C)n1nc(-c2ccc3oc(N)nc3c2)c2c(N)ncnc21 + CC(Nc1ncnc2nc[nH]c12)c1cc2cccc(Cl)c2c(=O)n1-c1ccccc1
IC50 (second compound 0.0316 µM): 0.0705 µM
IC50 (second compound 0.1 µM): 0.0835 µM
IC50 (second compound 0.316 µM): 0.0618 µM
IC50 (second compound 1 µM): 0.0722 µM
IC50 (second compound 3.16 µM): 0.0643 µM
IC50 (second compound 10 µM): 0.0509 µM
viability, T/C [37]: 116%
viability, T/C [38]: 103%
viability, T/C [39]: 98.8%
viability, T/C [40]: 97.3%
viability, T/C [1]: 90%
viability, T/C [2]: 33.1%
viability, T/C [41]: 92.2%
viability, T/C [42]: 76.5%
viability, T/C [43]: 87.8%
viability, T/C [44]: 92.8%
viability, T/C [7]: 79.2%
viability, T/C [8]: 44.6%
viability, T/C [45]: 93.5%
viability, T/C [46]: 107%
viability, T/C [47]: 91.3%
viability, T/C [48]: 104%
viability, T/C [13]: 67.6%
viability, T/C [14]: 37.3%
viability, T/C [49]: 86.4%
viability, T/C [50]: 107%
viability, T/C [51]: 78.4%
viability, T/C [52]: 90%
viability, T/C [19]: 83.7%
viability, T/C [20]: 36.6%
viability, T/C [53]: 99.4%
viability, T/C [54]: 94.2%
viability, T/C [55]: 86.9%
viability, T/C [56]: 76.2%
viability, T/C [25]: 82.2%
viability, T/C [26]: 33.1%
viability, T/C [57]: 95%
viability, T/C [58]: 75.1%
viability, T/C [59]: 80.5%
viability, T/C [60]: 75.6%
viability, T/C [31]: 61.4%
viability, T/C [32]: 35.1%

CC1(C)CCC(CN2CCN(c3ccc(C(=O)NS(=O)(=O)c4ccc(NCC5CCOCC5)c([N+](=O)[O-])c4)c(Oc4cnc5[nH]ccc5c4)c3)CC2)=C(c2ccc(Cl)cc2)C1 + CC(Nc1ncnc2nc[nH]c12)c1cc2cccc(Cl)c2c(=O)n1-c1ccccc1
IC50 (second compound 0.0316 µM): > 10 µM
IC50 (second compound 0.1 µM): > 10 µM
IC50 (second compound 0.316 µM): > 10 µM
IC50 (second compound 1 µM): > 10 µM
IC50 (second compound 3.16 µM): > 10 µM
IC50 (second compound 10 µM): > 10 µM
viability, T/C [1]: 120%
viability, T/C [2]: 75.2%
viability, T/C [3]: 85.7%
viability, T/C [4]: 80.9%
viability, T/C [5]: 81%
viability, T/C [6]: 79.5%
viability, T/C [7]: 110%
viability, T/C [8]: 96%
viability, T/C [9]: 99.5%
viability, T/C [10]: 83.7%
viability, T/C [11]: 89.6%
viability, T/C [12]: 83.6%
viability, T/C [13]: 88.5%
viability, T/C [14]: 101%
viability, T/C [15]: 86%
viability, T/C [16]: 89.7%
viability, T/C [17]: 85.3%
viability, T/C [18]: 81%
viability, T/C [19]: 96.9%
viability, T/C [20]: 93.4%
viability, T/C [21]: 91%
viability, T/C [22]: 80.3%
viability, T/C [23]: 77.1%
viability, T/C [24]: 79.2%
viability, T/C [25]: 91.6%
viability, T/C [26]: 88.9%
viability, T/C [27]: 97.3%
viability, T/C [28]: 95.5%
viability, T/C [29]: 87.3%
viability, T/C [30]: 66.8%
viability, T/C [31]: 96.5%
viability, T/C [32]: 94.4%
viability, T/C [33]: 88.8%
viability, T/C [34]: 89%
viability, T/C [35]: 86.1%
viability, T/C [36]: 79.8%

C[C@@H](NC(=O)c1ncnc(N)c1Cl)c1ncc(C(=O)Nc2cc(C(F)(F)F)c(Cl)cn2)s1 + CC(Nc1ncnc2nc[nH]c12)c1cc2cccc(Cl)c2c(=O)n1-c1ccccc1
IC50 (second compound 0.0316 µM): > 10 µM
IC50 (second compound 0.1 µM): > 10 µM
IC50 (second compound 0.316 µM): > 10 µM
IC50 (second compound 1 µM): > 10 µM
IC50 (second compound 3.16 µM): > 10 µM
IC50 (second compound 10 µM): > 10 µM
viability, T/C [1]: 75.3%
viability, T/C [2]: 88.3%
viability, T/C [3]: 83.8%
viability, T/C [4]: 89.1%
viability, T/C [5]: 108%
viability, T/C [6]: 92.5%
viability, T/C [7]: 106%
viability, T/C [8]: 90.2%
viability, T/C [9]: 86%
viability, T/C [10]: 84.3%
viability, T/C [11]: 89.9%
viability, T/C [12]: 90.9%
viability, T/C [13]: 94.8%
viability, T/C [14]: 93.2%
viability, T/C [15]: 90.3%
viability, T/C [16]: 84%
viability, T/C [17]: 84.7%
viability, T/C [18]: 100%
viability, T/C [19]: 80.2%
viability, T/C [20]: 105%
viability, T/C [21]: 80.9%
viability, T/C [22]: 89.2%
viability, T/C [23]: 85.8%
viability, T/C [24]: 90%
viability, T/C [25]: 72.2%
viability, T/C [26]: 91.2%
viability, T/C [27]: 97.4%
viability, T/C [28]: 98.8%
viability, T/C [29]: 82%
viability, T/C [30]: 80.7%
viability, T/C [31]: 105%
viability, T/C [32]: 82.1%
viability, T/C [33]: 103%
viability, T/C [34]: 84.1%
viability, T/C [35]: 86.3%
viability, T/C [36]: 88.8%

Cn1ncnc1[C@H]1c2n[nH]c(=O)c3cc(F)cc(c23)N[C@@H]1c1ccc(F)cc1 + CC(Nc1ncnc2nc[nH]c12)c1cc2cccc(Cl)c2c(=O)n1-c1ccccc1
IC50 (second compound 0.0316 µM): > 0.1 µM
IC50 (second compound 0.1 µM): > 0.1 µM
IC50 (second compound 0.316 µM): > 0.1 µM
IC50 (second compound 1 µM): > 0.1 µM
IC50 (second compound 3.16 µM): > 0.1 µM
IC50 (second compound 10 µM): > 0.1 µM
viability, T/C [37]: 86.8%
viability, T/C [38]: 92.8%
viability, T/C [39]: 79.7%
viability, T/C [40]: 94.8%
viability, T/C [1]: 99.6%
viability, T/C [2]: 80.8%
viability, T/C [41]: 110%
viability, T/C [42]: 82.2%
viability, T/C [43]: 99.3%
viability, T/C [44]: 91.5%
viability, T/C [7]: 89.5%
viability, T/C [8]: 93.3%
viability, T/C [45]: 98.1%
viability, T/C [46]: 82.9%
viability, T/C [47]: 90.6%
viability, T/C [48]: 100%
viability, T/C [13]: 85.6%
viability, T/C [14]: 92.1%
viability, T/C [49]: 98.3%
viability, T/C [50]: 89.6%
viability, T/C [51]: 102%
viability, T/C [52]: 74.5%
viability, T/C [19]: 86.5%
viability, T/C [20]: 92.6%
viability, T/C [53]: 86.3%
viability, T/C [54]: 90.2%
viability, T/C [55]: 88.6%
viability, T/C [56]: 83.2%
viability, T/C [25]: 103%
viability, T/C [26]: 96.3%
viability, T/C [57]: 80.7%
viability, T/C [58]: 81.7%
viability, T/C [59]: 83.4%
viability, T/C [60]: 92.3%
viability, T/C [31]: 102%
viability, T/C [32]: 83.7%
